Reference: the supplement of paper PMC10307832

What was measured:
Assay in all cases: relative viability (nuclei count vs DMSO), 5 days (fraction); higher = more cells survive
[1] = compound: CN1CCN(c2ccc3nc(-c4c(N)c5c(F)cccc5[nH]c4=O)[nH]c3c2)CC1 [Dovitinib] + COc1cc2c(Oc3ccc(NC(=O)C4(C(=O)Nc5ccc(F)cc5)CC4)cc3F)ccnc2cc1OCCCN1CCOCC1 [Foretinib] (partner 0.25 µM)
In short: (§1)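 Relative viability equals treated-well nuclei counts divided by vehicle-well nuclei counts. Counts came from 4× images of lung cancer cell lines grown in 1536-well plates for 5 days after pin-tool dosing on the day after seeding. Dosing used one drug alone or a fixed anchor-drug dose plus five library-drug doses (not always all listed) in √10 steps, and values are medians of duplicate plates.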

[2] = compound: CN1CCN(c2ccc3nc(-c4c(N)c5c(F)cccc5[nH]c4=O)[nH]c3c2)CC1 [Dovitinib] + Cc1cc(Nc2cc(N3CCN(C)CC3)nc(Sc3ccc(NC(=O)C4CC4)cc3)n2)n[nH]1 [Tozasertib] (partner 0.1 µM)
In short: as §1

[3] = compound: CN1CCN(c2ccc3nc(-c4c(N)c5c(F)cccc5[nH]c4=O)[nH]c3c2)CC1 [Dovitinib] + CCNC(=O)c1noc(-c2cc(C(C)C)c(O)cc2O)c1-c1ccc(CN2CCOCC2)cc1 [Luminespib] (partner 0.01 µM)
In short: as §1

[4] = compound: CN1CCN(c2ccc3nc(-c4c(N)c5c(F)cccc5[nH]c4=O)[nH]c3c2)CC1 [Dovitinib] + NC(=O)Nc1cc(-c2cccc(F)c2)sc1C(=O)N[C@H]1CCCNC1 [AZD7762] (partner 0.2 µM)
In short: as §1

Cell Line | relative viability ([1]; first compound 0.02 µM) | relative viability ([1]; first compound 0.06325 µM) | relative viability ([1]; first compound 0.2 µM) | relative viability ([1]; first compound 0.6325 µM) | relative viability ([1]; first compound 2 µM) | relative viability ([2]; first compound 0.02 µM) | relative viability ([2]; first compound 0.06325 µM) | relative viability ([2]; first compound 0.2 µM) | relative viability ([2]; first compound 0.6325 µM) | relative viability ([2]; first compound 2 µM) | relative viability ([3]; first compound 0.02 µM) | relative viability ([3]; first compound 0.06325 µM) | relative viability ([3]; first compound 0.2 µM) | relative viability ([3]; first compound 0.6325 µM) | relative viability ([3]; first compound 2 µM) | relative viability ([4]; first compound 0.02 µM) | relative viability ([4]; first compound 0.06325 µM) | relative viability ([4]; first compound 0.2 µM) | relative viability ([4]; first compound 0.6325 µM) | relative viability ([4]; first compound 2 µM)
201T | 0.946 | 1.01 | 1.07 | 1.09 | 1.06 | 0.917 | 0.967 | 0.975 | 0.946 | 0.873 | 0.924 | 1.04 | 1.02 | 1.09 | 1.01 | 0.615 | 0.814 | 0.598 | 0.606 | 0.562
A-427 | 1.17 | 0.996 | 1.02 | 1.07 | 0.956 | 0.222 | 0.201 | 0.203 | 0.162 | 0.225 | 0.843 | 1.02 | 1.14 | 0.897 | 0.747 | 0.767 | 0.733 | 0.674 | 0.665 | 0.697
ABC-1 | 0.899 | 1.05 | 1.2 | 1.11 | 1.42 | 0.175 | 0.208 | 0.201 | 0.208 | 0.192 | – | 0.522 | 0.326 | 0.783 | 0.659 | 0.519 | 0.852 | 0.735 | 0.536 | 0.698
BEN | 0.52 | 0.566 | 0.68 | 0.698 | 0.614 | 0.512 | 0.526 | 0.591 | 0.635 | 0.419 | 0.258 | 0.458 | 0.432 | 0.512 | 0.203 | 0.692 | 0.697 | 0.637 | 0.877 | 0.597
CAL-12T | 0.986 | 1.12 | 1.07 | 1.1 | 1.12 | 0.28 | 0.3 | 0.341 | 0.262 | 0.285 | 0.297 | 0.469 | 0.495 | 0.519 | 0.219 | 0.648 | 0.664 | 0.558 | 0.659 | 0.505
ChaGo-K-1 | 0.848 | 0.888 | 0.906 | 0.892 | 0.909 | 0.233 | 0.215 | 0.241 | 0.227 | 0.208 | 0.631 | 0.627 | 0.567 | 0.609 | 0.628 | 0.901 | 0.891 | 0.892 | 0.9 | 0.857
EKVX | 0.633 | 0.721 | 0.64 | 0.757 | 0.808 | 0.431 | 0.367 | 0.372 | 0.431 | 0.38 | 0.914 | 0.901 | 0.882 | 0.89 | 0.866 | 0.569 | 0.775 | 0.694 | 0.755 | 0.684
EMC-BAC-2 | 1 | 0.982 | 0.991 | 0.948 | 0.599 | 0.294 | 0.299 | 0.287 | 0.273 | 0.3 | 1.19 | 1.13 | 1.16 | 1.05 | 0.986 | 1.21 | 1.06 | 1.1 | 1.08 | 1.16
EPLC-272H | 0.634 | 0.841 | 0.732 | 0.747 | 0.687 | 0.343 | 0.267 | 0.263 | 0.343 | 0.32 | 0.235 | 0.241 | 0.386 | 0.364 | 0.236 | 0.281 | 0.218 | 0.197 | 0.218 | 0.239
H3255 | 0.877 | 0.864 | 0.904 | 0.982 | 0.966 | 0.741 | 0.617 | 0.766 | 0.638 | 0.629 | 0.943 | 0.9 | 0.956 | 0.932 | 0.923 | 0.966 | 0.907 | 1 | 0.89 | 0.809
HARA | 0.969 | 0.765 | 0.846 | 0.873 | 0.905 | 0.117 | 0.11 | 0.107 | 0.102 | 0.112 | 0.708 | 0.682 | 0.595 | 0.603 | 0.763 | 0.334 | 0.257 | 0.381 | 0.211 | 0.315
HCC-15 | 1.03 | 0.971 | 1 | 1.06 | 1.03 | 0.349 | 0.439 | 0.416 | 0.36 | 0.441 | 0.233 | 0.237 | 0.238 | 0.297 | 0.303 | 1.05 | 1.17 | 1.1 | 1.19 | 1.32
HCC-827 | 0.983 | 1.07 | 1.14 | 1.09 | 1.09 | 0.44 | 0.455 | 0.441 | 0.43 | 0.469 | 0.854 | 0.676 | 0.596 | 0.509 | 0.717 | 0.203 | 0.213 | 0.244 | 0.237 | 0.212
HOP-62 | 1.05 | 1.18 | 1.08 | 1.28 | 1.07 | 0.316 | 0.401 | 0.346 | 0.384 | 0.424 | 0.888 | 1.03 | 0.868 | 0.89 | 0.931 | 0.364 | 0.534 | 0.697 | 0.62 | 0.551
NCI-H522 | – | – | – | – | – | 0.549 | 0.583 | 0.536 | 0.54 | 0.665 | 1.15 | 0.989 | 1.01 | 1.19 | 1.07 | 0.704 | 0.81 | 0.878 | 0.813 | 0.974
